Results on 6 molecules are retold here after patent publication US4048334A, “Active derivatives of methylamino in therapeutic compositions and methods of use” (priority 1974, dated 1977).

For series [1] the following is noted: SPERBER et al., J. Amer. Chem. Soc., 71, 3352 (1949); cited from earlier work.
In series [2] the test system is reserpine-induced and neuroleptic-induced catatonia. Kind of series: Toxico-pharmacological index (LD50 / effective dose in catatonia). Conditions: ED20-30: 20 to 30% inhibition of the catatonia.
For series [3], the system named is neuroleptic-induced catatonia. Kind of series: Inhibition of neuroleptic-induced catatonia (prochlorperazine). Format: in vivo, rat (male, OFA strain). On the procedure:
2. Inhibition of neuroleptic-induced catatonia
The blocking of dopaminergic receptors by neuroleptics in the extra-pyramidal system induces catatonia in the rat. Catatonia is differentiated from sedative properties by means of the test used hereabove for reserpine-induced catatonia. The same system of scoring was also employed in the present case.
An oral dose of the compound to be studied in aqueous solution was administered to batches of 10 male rats of the OFA strain weighing about 150 to 200 g. […] Three hours after the injection of this latter compound, catatonia was measured. An identical trial was also carried out with control animals which received prochlorperazine but none of the compounds under study.
The scoring system, used was that given hereabove in Table I.

Series [4] has as its system reserpine-induced catatonia. Kind of series: Inhibition of reserpine-induced catatonia. The series is classed as in vivo, rat (male, OFA strain). On the procedure:
1. Inhibition of reserpine-induced catatonia
After sufficient doses of reserpine have been administered to the rat, a series of symptoms occur, more particularly ptosis, catatonia and a drop in central temperature. These symptoms are caused by the depletion of the intragranular reserve pool of boigenetic amines at the synaptic terminals.
An oral dose of the compound to be studied in aqueous solution was administered to batches of 10 male rats of the OFA strain weighing about 150 to 200 g. Thirty minutes later a dose of 5 mg/kg of reserpine was given by intraperitoneal route. Three hours after the injection of reserpine, the animals were suspended by the four paws to a horizontally stretched wire fixed at 15 cm from the ground. The catatonic animals were those which maintained the position so given for at least 30 seconds. […] The maximum score was therefore 10 per batch. An identical trial was undertaken with control animals which received reserpine but none of the compounds being studied.

A short description of a further series: in vivo. The settings on record: mouse, mice, oral, aqueous solution, 10 days observation.
The nature of series [5]: Toxico-pharmacological index (LD50 / effective dose in catatonia). Conditions: in vivo.
Series [6] deals with isolated duodenum of the rat. Kind of series: MAGNUS test: inhibition of acetylcholine spasm (cholinolytic / spasmolytic activity in vitro). From the text: This test consists in determining the dose of acetylcholine which, when added to the bath, provokes spasm of the isolated duodenum of the rat. The next step consists in determining the dose of the compound under study which, when added to the bath 30 seconds before the acetylcholine, reduces the spasm.

The subject of the next series is catalepsy. Put plainly: Inhibition of catalepsy (crossing of homolateral paws, prochlorperazine). Format: in vivo, rat. Conditions: Rattus norvegicus, po, read-out: dose necessary to induce complete inhibition of the catalepsy; prochlorperazine catalepsy. On the procedure: Additional trials were carried out on rats with Compound 1 and amantadine. These trials involved catalepsy as evidenced by the crossing of the animals' homolateral paws.

A further series relates to electrocardiogram. Kind of series: Effect on the electrocardiogram. The series is classed as in vivo. The settings on record: dog, 5 mg/kg injected.
In series [7] the test system is neuroleptic-induced catatonia. Kind of series: Suppression of neuroleptic-induced catatonia (curative treatment, prochlorperazine). Conditions: 80 mg/kg oral. Format: in vivo, rat (male, OFA strain). On the procedure: b. Suppression of neuroleptic-induced catatonia
Batches of 5 male rats of the OFA strain were given 12.5 mg/kg of prochlorperazine by intraperitoneal route. Fifty-five minutes later, an oral dose in aqueous solution of the compound to be studied was administered to all the animals with the exception of the control group. The progress of the catatonia was noted following the same scale as that used in the tests described above.

The subject of series [8] is reserpine-induced catatonia. Kind of series: Suppression of reserpine-induced catatonia (curative treatment). Format: in vivo, rat (male, OFA strain). Set-up: key to catatonia score (maximum 5 per batch): number of animals (of 5) still in catatonia; max 5 per batch. The settings on record: 80 mg/kg oral. On the procedure:
a. Suppression of reserpine-induced catatonia
Batches of 5 male rats of the OFA strain, weighing 150 to 200 g were given 5 mg/kg of reserpine by intraperitoneal route. One hour and 45 minutes later, namely when the animals were in a state of catatonia, an aqueous dose of the compound to be studied was administered by oral route to all the animals with the exception of the control group.
The progress of the catatonia was then noted following the scale used in the tests described hereabove.
The maximum score was thus 5 per batch which means that all the animals of the batch were considered to be still in a state of catatonia.

The test system of series [9] is peripheral noradrenergic phenomena (arterial pressure, nictitating membrane). Conditions: cat, in vivo.
Procedure: (§1) A cat, anaesthetized with pentobarbital, received a sufficient dose of norepinephrine to increase arterial pressure but not sufficient to cause contraction of the nictitating membrane. Arterial pressure was measured at the carotid immediately after administration of the dose of norepinephrine.
Series [10] has the same test system. Put plainly: Influence on peripheral noradrenergic phenomena (norepinephrine, arterial pressure and nictitating membrane).
Procedure: as §1
Series [11] relates to tremorine-induced cholinergic effects. Kind of series: Anti-tremorine test (cholinolytic properties in vivo). More on the design: species or system mice (male, OF1 strain); key to peripheral cholinergic effects score (salivation, sweating, weeping): 0: no action; 1: slight action; 2: average action; 3: strong action; 4: very strong action. On the procedure:
For this purpose, the following test was performed with a view to determining the anti-tremorine properties of Compound 1.
When injected into mice, tremorine produces peripheral effects i.e. weeping, sweating, salivation and diarrhoea and central effects i.e. tremor and akinesia. Such effects are due to an increase in the amount of intracerebral acetylcholine and serotonine.
Male mice of the OF1 strain weighing about 22 g were divided into batches of 10. […] Thirty minutes later a dose of 10 mg/kg of tremorine was injected by intraperitoneal route and, at different times after this injection, note was taken of the cholinergic effects on each animal in accordance with the following scale: […]

Setting [12] is: 20 mg/kg oral, 30 min before prochlorperazine.
Where [13] appears, read: 20 mg/kg oral, 30 min before reserpine.

Each structure is given as a SMILES string.

A word on the LD50: it is the dose expected to kill half of the subjects tested. For `CCCCC(N)(CCCC)CCCC` [Compound 12, 1,1-Di-n-butyl-n-pentylamine], in [1], the “spasmolytic activity and toxicity versus corresponding trialkylethylamines” value is “less spasmolytic and more toxic than the corresponding trialkylethylamines”. The “Index LD50/ED20-30” value in [2] turned out to be 25. In [3] (setting [12]), the “Inhibition of the neuroleptic-induced catatonia” value is recorded as 1 (20 to 30% inhibition of catatonia in comparison with the controls (namely a score of 7 to 8 per studied batch)). Besides, the “Inhibition of reserpine-induced catatonia” value in series [4] (setting [13]) is on record as 1 (20 to 30% inhibition of catatonia in comparison with the controls (namely a score of 7 to 8 per studied batch)). Moreover, the LD50 at 240 h in “in vivo” came to 500 mg/kg.
For `CCCC(N)(CC)CCC` [Compound 2, 1-Ethyl-1-n-propyl-n-butylamine], the selectivity ratio in series [5] was 25. In addition, the “Inhibition of the neuroleptic-induced catatonia” value in series [3] (5 mg/kg oral, 30 min before prochlorperazine 12.5 mg/kg i.p.) is given as 1 (20 to 30% inhibition of catatonia in comparison with the controls (namely a score of 7 to 8 per studied batch)). The “Inhibition of reserpine-induced catatonia” value in series [4] (5 mg/kg oral, 30 min before reserpine 5 mg/kg i.p.) is recorded as 1 (20 to 30% inhibition of catatonia in comparison with the controls (namely a score of 7 to 8 per studied batch)). In the series “in vivo”, this molecule yielded a median lethal dose (LD50) at 240 h of 150 mg/kg.
Regarding `CCCC(C)(N)CC(C)CC` (stereo not drawn) [Compound 6, 1,3-Dimethyl-1-n-propyl-n-pentylamine], in [2], the “Index LD50/ED20-30” value is reported as greater than 25. For the same molecule, the “Inhibition of the neuroleptic-induced catatonia” value in [3] (setting [12]) is 1 (20 to 30% inhibition of catatonia in comparison with the controls (namely a score of 7 to 8 per studied batch)). In addition, the “Inhibition of reserpine-induced catatonia” value in series [4] (setting [13]) is 1 (20 to 30% inhibition of catatonia in comparison with the controls (namely a score of 7 to 8 per studied batch)). For the same molecule, the LD50 at 240 h in “in vivo” was greater than 500 mg/kg.
Regarding `CCCCCC(C)(N)CCC` (stereo not drawn) [Compound 9, 1-Methyl-1-n-propyl-n-hexylamine], in [2], the “Index LD50/ED20-30” value stood at 87. For the same molecule, the “Inhibition of the neuroleptic-induced catatonia” value in series [3] (setting [12]) was 1 (20 to 30% inhibition of catatonia in comparison with the controls (namely a score of 7 to 8 per studied batch)). For the same molecule, the “Inhibition of reserpine-induced catatonia” value in [4] (setting [13]) is listed as 1 (20 to 30% inhibition of catatonia in comparison with the controls (namely a score of 7 to 8 per studied batch)). This molecule gave an LD50 at 240 h in “in vivo” of 1750 mg/kg.
As to `CN1[C@@H]2CC[C@H]1C[C@@H](OC(=O)C(CO)c1ccccc1)C2` (stereo partly drawn) [Atropine, reference compound], the “% of inhibition of the spasm” value is given as 45% in [6] (0.1 × 10^-6 g/ml of bath) and 100% in [6] (0.2 × 10^-6 g/ml of bath).
Regarding `NC12CC3CC(CC(C3)C1)C2` [Amantadine, 1-amino-adamantane], the ED100 with catalepsy came out at 80 mg/kg. In addition, the “Inhibition of the neuroleptic-induced catatonia” value in series [3] (100 mg/kg oral, 30 min before prochlorperazine) is reported as 4 (100% inhibition of catatonia in comparison with the controls (namely a score of 0 per studied batch)). Besides, in series [4] (100 mg/kg oral, 30 min before reserpine), the “Inhibition of reserpine-induced catatonia” value was 4 (100% inhibition of catatonia in comparison with the controls (namely a score of 0 per studied batch)). Further, the “effect on the electrocardiogram” value in the series with electrocardiogram is “cardiac arrhythmia due to ventricular extrasystoles”. Besides, the “catatonia score (5 rats per batch)” value in series [7] (1h30 after prochlorperazine) is recorded as 5; in series [7] (2h30 after prochlorperazine), 2; in series [7] (3h30 after prochlorperazine) it was 0; in [7] (3h after prochlorperazine), 1; in [7] (4h after prochlorperazine), 0; in series [7] (5h after prochlorperazine), 0. The “catatonia score (maximum 5 per batch)” value came out at 4 in [8] (2h15 after reserpine); 3 in series [8] (2h30 after reserpine); 1 in series [8] (3h30 after reserpine); 5 in series [8] (2h after reserpine); 2 in series [8] (3h after reserpine); 0 in series [8] (4h after reserpine). In series [8] (5h after reserpine), the “catatonia score (maximum 5 per batch)” value amounted to 0. The “dose from which exogenous norepinephrine is potentiated” value in series [9] is no less than 1 mg/kg. For the same molecule, in [9], the “dose from which ganglioplegic properties are shown” value is no less than 5 mg/kg. In addition, the “Contractile reaction of the nictitating membrane with electric stimulation” value was 20 mm in [10] (cumulative dose 0.1 mg/kg i.v.); 20 mm in [10] (cumulative dose 1 mg/kg i.v.); 16 mm in series [10] (cumulative dose 3 mg/kg i.v.); 10 mm in series [10] (cumulative dose 5 mg/kg i.v.); 4 mm in series [10] (cumulative dose 10 mg/kg i.v.). Moreover, the “Contractile reaction of the nictitating membrane without electric stimulation” value worked out at 0 mm in series [10] (cumulative dose 0.1 mg/kg i.v.); 3 mm in [10] (cumulative dose 1 mg/kg i.v.); 4.4 mm in [10] (cumulative dose 3 mg/kg i.v.); 5.9 mm in series [10] (cumulative dose 5 mg/kg i.v.); 7.5 mm in series [10] (cumulative dose 10 mg/kg i.v.). Besides, the “Increase in arterial pressure after injection of norepinephrine” value in series [10] (cumulative dose 0.1 mg/kg i.v.) is 29 mm Hg; in [10] (cumulative dose 1 mg/kg i.v.) it was 35 mm Hg; in [10] (cumulative dose 3 mg/kg i.v.), 35 mm Hg; in series [10] (cumulative dose 5 mg/kg i.v.), 59 mm Hg; in [10] (cumulative dose 10 mg/kg i.v.), 57 mm Hg. Moreover, the ganglioplegic action result in series [10] (in vivo) is “exerts a ganglioplegic action”. The “own effect on contractile reaction of the nictitating membrane” value in [10] (in vivo) is recorded as “stimulates the contractile reaction of the nictitating membrane”. Further, the “potentiation of (peripheral) effects of norepinephrine” value in series [10] (in vivo) was “potentiates the peripheral adrenergic effects”. Further, the “potentiation of the effects of the electric stimulation” value in [10] (in vivo) was “does not potentiate the effects of the electric stimulation”. Besides, in series [11] (40 mg/kg oral, 20, 30 and 40 minutes after tremorine 10 mg/kg i.p.), the “peripheral cholinergic effects score (salivation, sweating, weeping)” value amounted to 4. For the same molecule, in series [11] (40 mg/kg oral, identical to the peripheral score (4)), the “central cholinergic effects (normal and provoked tremor)” value was “Identical results”. The antitremorine properties entry in series [11] (mouse, in vivo) is given as “devoid of antitremorine properties”.
